How the values were obtained:
[1] = PK study in mice (intravenous and oral); type: in vivo
Method: Female BALB/cAnNCrj-nu/nu mice were purchased from Charles River Laboratories (Kanagawa, Japan) and were acclimatized for 9 days prior to use in the PK study. At the dosing day, 7-week-old mice were used. E7080 was dissolved in 5% glucose injection to make a 0.3 mg/mL solution for intravenous administration and dissolved in water to make 0.3, 1, and 3 mg/mL solutions for oral administrations. Lenvatinib was intravenously administered at the dose of 3 mg/kg via the tail vein using a disposable syringe and oral administration was performed by gastric gavage at the doses of 3, 10, and 30 mg/kg at the dosing volume of 10 mL/kg (n = 3/time point/dose). Whole blood samples were drawn from the vena cava using heparinized syringes at 5, 15, and 30 min, and 1, 2, 4, 6, 8, 12, and 24 h postdose. Plasma samples were obtained by centrifugation and aliquots of plasma were transferred to a tube and stored below − 15 °C until assayed.
PK parameters of lenvatinib were estimated by model independent analysis using a WinNonlin program (Version 4.1, Pharsight Corporation, Mountain View, CA). The time to reach the maximum plasma concentration (Tmax) and the maximum plasma concentration (Cmax) values were obtained directly from the plasma concentration data. Terminal half-life (T1/2) was calculated by ln2/ke, where ke is the slope of the regression line that fits the portion of the terminal phase (at least three time points) in the log-linear concentration–time curve. AUC0–t and AUMC0–t, the area under the concentration–time curves and the area under the first moment curve, from time = zero to time = t, respectively, were calculated using the lenvatinib concentrations in plasma by the linear/log trapezoidal method. AUC0–inf was calculated by AUC0–t + Ct/ke, and AUMC0–inf was AUMC0–t + Ct × t/ke + Ct/(ke)^2, where Ct is the last measurable concentration at time = t. The plasma concentration at time zero for the intravenous dose was extrapolated, while zero was used for the oral doses. Mean residence time (MRT), total plasma clearance (CLtot) and the volume of distribution at steady state (Vdss) were calculated by AUMC0–inf/AUC0–inf, Dose/AUC0–inf and CLtot × MRT, respectively. Oral bioavailability (F) was estimated by comparing dose-normalized AUC0–inf after oral (AUC0–inf.po) and intravenous (AUC0–inf.iv) administration as follows: F (%) = (AUC0–inf.po/AUC0–inf.iv) × 100.

[2] = test system: plasma protein; assay: in vitro plasma protein binding, mice; type: in vitro ADME; settings: mouse
[3] = phase-1 clinical trial, oral PK in humans; type: in vivo; settings: human, plasma; calculated from AUCoral at 9 mg oral dose in a phase-1 study and fp 0.0172; read-out: observed CLint in humans (converted)
[4] = PK study in dogs (intravenous and oral); type: in vivo
Method: Male beagle dogs purchased from Marshall Farm USA Inc. (NY, USA) were used for the PK study. Dogs were 16 months old when the PK study was conducted. The PK study was performed in a cross-over design with 8 days interval between the doses. Dogs were fasted a day before the PK study and feeding was resumed 4 h postdose. Dosing solution of lenvatinib used in the dog PK study was the same as that in the rodent PK studies. Lenvatinib was intravenously administered at the dose of 3 mg/kg via cephalic vein. Oral administration of lenvatinib was conducted at 3 mg/kg by using a tube with a disposable syringe, and then the dosing tube was given ca. 30 mL of water to flush the remaining dosing solution in the tube. The number of dogs at each dose was four. Approximately 0.5 mL of blood samples were serially obtained from the cephalic vein using a heparinized syringe at pre-dose, and at 5, 15 and 30 min, and 1, 2, 4, 6, 8, 12 and 24 h post-dose. Plasma sample preparation and sample storage were the same as those in the rodent PK studies. PK parameters of lenvatinib were estimated by model independent analysis using a WinNonlin program (Version 4.1, Pharsight Corporation, Mountain View, CA). The time to reach the maximum plasma concentration (Tmax) and the maximum plasma concentration (Cmax) values were obtained directly from the plasma concentration data. Terminal half-life (T1/2) was calculated by ln2/ke, where ke is the slope of the regression line that fits the portion of the terminal phase (at least three time points) in the log-linear concentration–time curve. AUC0–t and AUMC0–t, the area under the concentration–time curves and the area under the first moment curve, from time = zero to time = t, respectively, were calculated using the lenvatinib concentrations in plasma by the linear/log trapezoidal method. AUC0–inf was calculated by AUC0–t + Ct/ke, and AUMC0–inf was AUMC0–t + Ct × t/ke + Ct/(ke)^2, where Ct is the last measurable concentration at time = t. The plasma concentration at time zero for the intravenous dose was extrapolated, while zero was used for the oral doses. Mean residence time (MRT), total plasma clearance (CLtot) and the volume of distribution at steady state (Vdss) were calculated by AUMC0–inf/AUC0–inf, Dose/AUC0–inf and CLtot × MRT, respectively. Oral bioavailability (F) was estimated by comparing dose-normalized AUC0–inf after oral (AUC0–inf.po) and intravenous (AUC0–inf.iv) administration as follows: F (%) = (AUC0–inf.po/AUC0–inf.iv) × 100.

[5] = test system: plasma protein; assay: in vitro plasma protein binding, rats; type: in vitro ADME
[6] = female, BALB/cAnNCrj-nu/nu, mouse, plasma, intravenous 3 mg/kg
[7] = female, BALB/cAnNCrj-nu/nu, mouse, plasma, oral 3 mg/kg
[8] = female, BALB/cAnNCrj-nu/nu, mouse, plasma, oral 10 mg/kg
[9] = female, BALB/cAnNCrj-nu/nu, mouse, plasma, oral 30 mg/kg
[10] = male, beagle, dog, plasma, intravenous 3 mg/kg
[11] = male, beagle, dog, plasma, oral 3 mg/kg

CLint (hepatic intrinsic clearance) ([1]; estimated from oral PK, Fa and Fg assumed unity, BW 0.02 kg): 325 mL/h
AUC(0-inf) [1, 6]: 8690 ng·h/mL
MRT [1, 6]: 2.07 h
C0 ([1]; female, BALB/cAnNCrj-nu/nu, mouse, plasma, intravenous 3 mg/kg, extrapolated): 8290 ng/mL
clearance ([1]; female, BALB/cAnNCrj-nu/nu, mouse, plasma, intravenous 3 mg/kg, read-out: CLtot (converted)): 5.75 mL/min/kg
Vd ([1]; female, BALB/cAnNCrj-nu/nu, mouse, plasma, intravenous 3 mg/kg, read-out: Vdss): 0.714 L/kg
half-life ([1]; female, BALB/cAnNCrj-nu/nu, mouse, plasma, iv, 3 mg/kg, intravenous 3 mg/kg): 2.05 h
AUC(0-inf) [1, 7]: 5600 ng·h/mL
Cmax [1, 7]: 1970 ng/mL
MRT [1, 7]: 3.28 h
Tmax [1, 7]: 0.5 h
bioavailability ([1]; female, BALB/cAnNCrj-nu/nu, mouse, plasma, oral 3 mg/kg vs intravenous 3 mg/kg, read-out: F (oral bioavailability)): 64.4%
AUC(0-inf) [1, 8]: 27700 ng·h/mL
Cmax [1, 8]: 10500 ng/mL
MRT [1, 8]: 3.01 h
Tmax [1, 8]: 0.5 h
AUC(0-inf) [1, 9]: 118000 ng·h/mL
Cmax [1, 9]: 31300 ng/mL
MRT [1, 9]: 3.29 h
Tmax [1, 9]: 1 h
half-life ([1]; female, BALB/cAnNCrj-nu/nu, mouse, plasma, po, 3 mg/kg, oral 3 mg/kg): 2.09 h
half-life ([1]; female, BALB/cAnNCrj-nu/nu, mouse, plasma, po, 10 mg/kg, oral 10 mg/kg): 1.74 h
half-life ([1]; female, BALB/cAnNCrj-nu/nu, mouse, plasma, po, 30 mg/kg, across 3, 10, and 30 mg/kg): 1.74 to 2.09 h
half-life ([1]; female, BALB/cAnNCrj-nu/nu, mouse, plasma, po, 30 mg/kg, oral 30 mg/kg): 1.85 h
fraction unbound ([2]; plasma, mice, 0.3–30 μg/mL, read-out: average fp (unbound fraction in plasma)): 0.033
fraction unbound at 0.3 μg/mL ([2]; mice plasma, 0.3 μg/mL): 0.031
CLint scaled [3]: 75.1 mL/min/kg
CLint (hepatic intrinsic clearance) ([4]; estimated from oral PK, Fa and Fg assumed unity, BW 10 kg): 61,500 mL/h
AUC(0-inf) [4, 10]: 8420 ± 927 ng·h/mL
MRT [4, 10]: 4.34 ± 0.36 h
half-life [4, 10]: 5.27 ± 0.83 h
C0 ([4]; male, beagle, dog, plasma, intravenous 3 mg/kg, extrapolated): 2440 ± 303 ng/mL
clearance ([4]; male, beagle, dog, plasma, intravenous 3 mg/kg, read-out: CLtot (converted)): 6.13 mL/min/kg
Vd ([4]; male, beagle, dog, plasma, intravenous 3 mg/kg, read-out: Vdss): 1.61 ± 0.249 L/kg
AUC(0-inf) [4, 11]: 5480 ± 1370 ng·h/mL
Cmax [4, 11]: 1270 ± 302 ng/mL
MRT [4, 11]: 4.81 ± 0.25 h
half-life [4, 11]: 4.76 ± 0.94 h
bioavailability ([4]; male, beagle, dog, plasma, oral 3 mg/kg vs intravenous 3 mg/kg, read-out: F (oral bioavailability)): 70.4 ± 23.1%
Tmax ([4]; male, beagle, dog, plasma, oral 3 mg/kg, median (range)): 2 h
fraction unbound at 0.3 μg/mL ([5]; rat plasma, 0.3 μg/mL): 0.019
fraction unbound ([5]; rat, plasma, rats, 0.3–30 μg/mL, read-out: average fp (unbound fraction in plasma)): 0.02
Structure (SMILES): COc1cc2nccc(Oc3ccc(NC(=O)NC4CC4)c(Cl)c3)c2cc1C(N)=O [lenvatinib, Lenvatinib]
